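Compound exposure: 48 hours, 5 concentrations, 96-well plates. The concentration for 50% growth inhibition is given as GI50.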 Active and inactive are the calls of the source. No stated cut-off is given here; in the data, active = GI50 up to about 1.1 µM and inactive = higher.
Legend:
Test in all cases: NCI tumour cell line growth inhibition, 48 h
[1] = test system: NCI-H23
[2] = test system: HL-60
[3] = test system: A549
[4] = test system: SF-539
[5] = test system: SF-295
[6] = test system: EKVX
[7] = test system: SK-OV-3
[8] = test system: ACHN
[9] = test system: MDA-N
[10] = test system: BT-549
[11] = test system: COLO 205
[12] = test system: NCI/ADR-RES
[13] = test system: SR
[14] = test system: SK-MEL-28
[15] = test system: A498
[16] = test system: K562
[17] = test system: PC-3
[18] = test system: UACC-257
[19] = test system: SN12C

| SMILES | GI50 [1] | GI50 [2] | GI50 [3] | GI50 [4] | GI50 [5] | GI50 [6] | GI50 [7] | GI50 [8] | GI50 [9] | GI50 [10] | GI50 [11] | GI50 [12] | GI50 [13] | GI50 [14] | GI50 [15] | GI50 [16] | GI50 [17] | GI50 [18] | GI50 [19] |
| --- | --- | --- | --- | --- | --- | --- | --- | --- | --- | --- | --- | --- | --- | --- | --- | --- | --- | --- | --- |
| CC1(C)OC2C(CO)OC(n3cnc(N)nc3=O)C2O1 (stereo not drawn) | > 100 µM (inactive) | > 100 µM (inactive) | > 100 µM (inactive) | > 100 µM (inactive) | > 100 µM (inactive) | > 100 µM (inactive) | > 100 µM (inactive) | > 100 µM (inactive) | > 100 µM (inactive) | > 100 µM (inactive) | > 100 µM (inactive) | > 100 µM (inactive) | > 100 µM (inactive) | > 100 µM (inactive) | > 100 µM (inactive) | > 100 µM (inactive) | > 100 µM (inactive) | > 100 µM (inactive) | > 100 µM (inactive) |
| COC(=O)/N=[N+](\[O-])C(c1ccc(Cl)cc1)c1ccc(Cl)cc1 | 32 µM (inactive) | 20.7 µM (inactive) | 40.1 µM (inactive) | 65.3 µM (inactive) |  | 25.2 µM (inactive) | 83.6 µM (inactive) |  | 47.5 µM (inactive) | 53.8 µM (inactive) | 23.9 µM (inactive) | 38.2 µM (inactive) | 42 µM (inactive) | 50.4 µM (inactive) | 31.8 µM (inactive) | 49.1 µM (inactive) | 27.2 µM (inactive) | 34.6 µM (inactive) | 56.1 µM (inactive) |
| CC(C)c1nc(Cl)nc(Cl)c1Cl | 0.474 µM (active) | 0.0125 µM (active) | 1.58 µM (inactive) | 0.515 µM (active) | 2.82 µM (inactive) | 1.63 µM (inactive) | 4.58 µM (inactive) | 0.264 µM (active) | 0.679 µM (active) | 0.0113 µM (active) | 0.239 µM (active) | 0.295 µM (active) | < 0.01 µM (active) | 0.357 µM (active) | 3.27 µM (inactive) | < 0.01 µM (active) | 0.401 µM (active) | 0.256 µM (active) | 0.482 µM (active) |
| COC(=O)c1c(OC(C)=O)ccc2c1c1c(OC(C)=O)c3ccccc3c(OC(C)=O)c1n2Cc1ccccc1 | 6.03 µM (inactive) | 3.33 µM (inactive) | 2.75 µM (inactive) | 1.61 µM (inactive) | 2.55 µM (inactive) | 2.56 µM (inactive) | 3.67 µM (inactive) | 11.8 µM (inactive) | 14.2 µM (inactive) | 4.76 µM (inactive) | 7.91 µM (inactive) | 7.06 µM (inactive) | 1.64 µM (inactive) | 9.77 µM (inactive) | 13.7 µM (inactive) | 5.33 µM (inactive) | 1.55 µM (inactive) | 16.3 µM (inactive) | 10.5 µM (inactive) |
| Cc1cc2cc3cc(C)c(N)cc3nc2cc1N [ACRIDINE YELLOW] | 0.794 µM (active) | 0.789 µM (active) | 0.509 µM (active) | 1.01 µM (active) | 0.693 µM (active) | 0.535 µM (active) | 1.34 µM (inactive) | 0.365 µM (active) | 1.57 µM (inactive) | 5.52 µM (inactive) | 0.757 µM (active) | 2.13 µM (inactive) | 0.209 µM (active) | 1.51 µM (inactive) | 0.619 µM (active) | 0.687 µM (active) | 1.06 µM (active) | 3.85 µM (inactive) | 0.448 µM (active) |
| O=c1cc(N=P(c2ccccc2)(c2ccccc2)c2ccccc2)n(-c2ccccc2)c(=O)n1-c1ccccc1 | 5.85 µM (inactive) | 5.06 µM (inactive) | 6.25 µM (inactive) | 3.76 µM (inactive) | 20.7 µM (inactive) | 10.4 µM (inactive) | 22.2 µM (inactive) | 4.33 µM (inactive) | 7.64 µM (inactive) | 14.5 µM (inactive) | 6.56 µM (inactive) | 21.8 µM (inactive) | 4.28 µM (inactive) | 23.9 µM (inactive) | 3.18 µM (inactive) | 3.31 µM (inactive) | 3.94 µM (inactive) | 23.8 µM (inactive) | 11.1 µM (inactive) |
| C1=C(CC2=C[P+](c3ccccc3)(c3ccccc3)C=C(c3ccccc3)O2)OC(c2ccccc2)=C[P+]1(c1ccccc1)c1ccccc1 | 0.448 µM (active) | 0.188 µM (active) | 0.494 µM (active) | 0.362 µM (active) | 0.566 µM (active) | 0.44 µM (active) | 0.367 µM (active) | 0.644 µM (active) | 0.337 µM (active) | 0.097 µM (active) | 0.162 µM (active) | 14.3 µM (inactive) | 0.26 µM (active) | 0.724 µM (active) | 0.716 µM (active) |  | 0.337 µM (active) | 0.352 µM (active) | 0.339 µM (active) |
| Cc1cn(C2CC(N=[N+]=[N-])C(COP(=O)(O)OCC3OC(n4cc(F)c(=O)[nH]c4=O)CC3O)O2)c(=O)[nH]c1=O (stereo not drawn) | 4.05 µM (inactive) | 9.1 µM (inactive) | 0.368 µM (active) | 0.0438 µM (active) | 0.337 µM (active) | 6.46 µM (inactive) | > 100 µM (inactive) | 0.63 µM (active) | 38.3 µM (inactive) | > 100 µM (inactive) | > 100 µM (inactive) | 0.57 µM (active) | 1.92 µM (inactive) | > 77.4 µM (inactive) | 3.37 µM (inactive) |  | > 100 µM (inactive) | 96.6 µM (inactive) | > 100 µM (inactive) |
